From article PMC4298654, “In vivo formation of N-acyl-fumonisin B1” (Mycotoxin Research, 2014) come the findings set out here.

The nature of data set [1]: Tissue FB1 and HFB1 concentrations in rat kidney and liver (HPLC-ESI-MS/MS). It counts as in vivo. Conditions: HFB1 2.47 μmol/kg body weight per day ip, 5 days. An excerpt:
(§1) The study protocol was approved by the Institutional Animal Care and Use Committee, Richard B. Russell Agricultural Research Center, Athens, GA. Male Sprague–Dawley rats (Harlan Industries, Indianapolis, IN, USA), 7 weeks of age at receipt, were individually housed in stainless steel, wire mesh cages in an environmentally controlled room having a 12-h light/dark cycle. Food (2019 Global Rodent Diet, Teklad, Madison, WI, USA) and fresh tap water were provided ad libitum. After a 1 week acclimation period, the animals were randomly assigned to five groups (n = 2/group) having mean weights of 215 to 216 g (weight range of all animals, 211 to 220 g). For five consecutive days, they were observed, weighed, and given an intraperitoneal injection (ip) of 0 (vehicle), 0.5, 1.0, or 2.0 mg/kg body weight FB1 (provided by R. Eppley, US FDA), 1.0 mg/kg body weight HFB1 (positive control) (Voss et al. [2009]), or vehicle (0.9 % physiological saline). These doses corresponded to 0.69, 1.38, and 2.77 μmol FB1/kg body weight and 2.47 μmol/kg body weight HFB1 per day. In order to compare the effects of FB1 and HFB1, dosages will be expressed as molar concentrations and, on this basis, the high dose of FB1 is roughly equivalent to that of the positive control dose of HFB1. Dosing solutions were sterile filtered and administered at a volume rate of 10 ml/kg body weight. The animals were fasted overnight prior to administration of the final dose. The rats were euthanized (CO2 inhalation and exsanguination) 60 to 90 min following the final dose administration and examined by necropsy. The kidney and liver specimens were fixed in 10 % neutral buffered formalin, processed, and microscopically evaluated without knowledge of the animal’s identity or treatment group. Three representative liver and kidney specimens (100 mg each) were also collected, immediately frozen, and stored (−80 °C) until processed, at which time the tissues were thawed and homogenized in distilled/deionized water (1 ml water/100 mg tissue). The homogenates were lyophilized before they were shipped by overnight courier for the analysis of fumonisin metabolites and sphingolipids.
(§2) Lyophilized liver and kidney tissues (100 mg wet weight equivalents) were processed for the quantification of FB1, HFB1, NAFB1, NAHFB1, and sphingolipids. Preparation of the tissue samples was performed according to a previously published method (Harrer et al. [2013]). For the quantification of FB1 and HFB1, a d6-labeled derivative of FB1 (FB1-d6) was used as the internal standard. Synthetic derivatives with a heptadecanoic fatty acid (C17:0) residue were used as internal standards for the quantification of N-acyl-fumonisins and ceramides (N-C17:0-FB1, N-C17:0-HFB1, and N-C17:0-ceramide). The sphingoid bases and their phosphate derivatives were quantified using synthetic derivatives with a C17-acyl-backbone: sphingosine (C17:1), sphingosine-1-phosphate (C17:1), sphinganine (C17:0), sphinganine-1-phosphate (C17:0) as internal standards. The standards were dissolved in methanol:chloroform (2:1, v/v) and then mixed with the tissue samples. The samples spiked with internal standard were kept at room temperature for 30 min before being processed further. The internal standard-spiked samples were first extracted with ethyl acetate, isopropanol, and water (60:30:10, v/v/v) and a second time using methanol, chloroform, and water (60:30:10, v/v/v). The extracts were combined, the solvents removed by evaporation, and the dried samples stored at−80 °C till analyzed.
For the analysis, the samples were reconstituted in a mixture of water, methanol, and tetrahydrofurane (60:24:16, v/v/v). The NAFB1 and NAHFB1 derivatives having the following fatty acyl chain lengths were quantified by HPLC-MS/MS: C16:0, C18:0, C20:0, C22:0, C24:0, C26:0. Furthermore, we also quantified the unsaturated derivatives C24:1 and C26:1. The results are given as the sum of all N-acyl derivatives of FB1 or HFB1. […]

A short description of data set [2]: In vivo formation of NAFB1 and NAHFB1 in rat kidney and liver (HPLC-ESI-MS/MS). Conditions: kidney; FB1 2.77 or HFB1 2.47 μmol/kg body weight per day ip, 5 days.
The subject of data set [3] is sphingolipid metabolism. The experiment in a line: Sphingolipid levels in rat kidney and liver after ip FB1 or HFB1. The format is in vivo. The conditions noted are these: 5 days; for Sa/So ratio / sphinganine (Sa) / sphinganine-1-phosphate (Sa1P) / sphingosine (So) / sphingosine-1-phospate (So1P): dose High: 2.77 μmol FB1/kg or 2.47 μmol HFB1/kg body weight per day ip.
From the text: as §1, §2

Data set [4] concerns rat liver and kidney. Kind of data set: Histological examination of rat liver and kidney. Conditions: ip, 5 days; FB1 0.5, 1.0, 2.0 mg/kg or HFB1 1.0 mg/kg body weight per day; n = 2/group. It counts as in vivo. The source says: The study protocol was approved by the Institutional Animal Care and Use Committee, Richard B. Russell Agricultural Research Center, Athens, GA. Male Sprague–Dawley rats (Harlan Industries, Indianapolis, IN, USA), 7 weeks of age at receipt, were individually housed in stainless steel, wire mesh cages in an environmentally controlled room having a 12-h light/dark cycle. Food (2019 Global Rodent Diet, Teklad, Madison, WI, USA) and fresh tap water were provided ad libitum. After a 1 week acclimation period, the animals were randomly assigned to five groups (n = 2/group) having mean weights of 215 to 216 g (weight range of all animals, 211 to 220 g). For five consecutive days, they were observed, weighed, and given an intraperitoneal injection (ip) of 0 (vehicle), 0.5, 1.0, or 2.0 mg/kg body weight FB1 (provided by R. Eppley, US FDA), 1.0 mg/kg body weight HFB1 (positive control) (Voss et al. [2009]), or vehicle (0.9 % physiological saline). […] In order to compare the effects of FB1 and HFB1, dosages will be expressed as molar concentrations and, on this basis, the high dose of FB1 is roughly equivalent to that of the positive control dose of HFB1. […] The kidney and liver specimens were fixed in 10 % neutral buffered formalin, processed, and microscopically evaluated without knowledge of the animal’s identity or treatment group. […]

Where only a bound is given, the exact number is not on record here.

`CCCC[C@@H](C)[C@@H](O)[C@@H](O)C[C@@H](C)C[C@H](O)CCCC[C@@H](O)C[C@H](O)[C@H](C)N` [HFB1, Hydrolyzed fumonisin B1, reference compound]: in data set [1], the “HFB1 molar concentration in the liver relative to the kidney” value was “about sixfold higher”. In data set [1] (kidney), the “HFB1 molar concentration in tissue” value is on record as 0.27 nmol/g and the “unmetabolized HFB1 accumulated in tissue, % of the total dose (TD)” value was below 0.1 % TD. For the same molecule, the “total amount of HFB1 species in tissue, % of the total dose (TD)” value in data set [1] (kidney, HFB1 plus N-acyl metabolites) amounted to 0.03 % TD. For the same molecule, in data set [1] (liver), the “HFB1 molar concentration in tissue” value was 1.78 nmol/g and the “unmetabolized HFB1 accumulated in tissue, % of the total dose (TD)” value is 0.7 % TD. Further, the “metabolites of the dosed mycotoxin found in the kidney” value in data set [2] was “less than 0.5 nmol/g”. The “levels of sphingoid bases and 1-phosphates (total sphingosine, total sphinganine) in tissues compared to vehicle-treated controls” value in data set [3] (kidney and liver, ip) is “did not cause any significant changes”. For the same molecule, in data set [3] (kidney), the Sa/So ratio was 0.3 ± 0.0, the “sphinganine (Sa)” value is on record as 3 ± 0.7 nmol/g, the “sphinganine-1-phosphate (Sa1P)” value is listed as 0.6 ± 0.4 nmol/g and the “sphingosine (So)” value was found to be 9 ± 2.8 nmol/g. Moreover, the “sphingosine-1-phospate (So1P)” value in data set [3] (kidney) worked out at 0.4 ± 0.1 nmol/g. Further, in data set [3] (liver), the Sa/So ratio was 0.5 ± 0.4, the “sphinganine (Sa)” value was 2 ± 1 nmol/g, the “sphinganine-1-phosphate (Sa1P)” value was determined as 0.1 ± 0.1 nmol/g and the “sphingosine (So)” value worked out at 3 ± 0.2 nmol/g. Moreover, the “sphingosine-1-phospate (So1P)” value in data set [3] (liver) came to 0.2 ± 0.0 nmol/g. For the same molecule, the “microscopic appearance of kidney and liver” value in data set [4] was “could not be differentiated from that of tissues from the vehicle control group”.
